These results are taken from PubChem BioAssay AID588587 (The Scripps Research Institute Molecular Screening Center, 2011).

In the assay the test system is Fam108b (Abhd17b) [Mus musculus]. Put plainly: Fam108b hydrolase inhibitors in membrane proteome – cell lysate, gel-based competitive ABPP, membrane form, set 2, SAR follow-up (AID 588587). Particulars: Fam108b-overexpressing membrane proteome, FP-Rh, at 20 µM, active compounds read high.

Activity calls are given as the source filed them.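 Rule for the calls: active = inhibition above 60%; inactive = inhibition at or below 60%.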

One may read the inhibition as the change of the read-out against control, counted positive when it falls.

Consider `O=c1oc(-c2ccccc2F)nc2scc(-c3cccs3)c12`, for which the inhibition is 0% (inactive).

Take `CC(C)(C)c1nc2scc(-c3ccccc3)c2c(=O)o1`: the inhibition is 0% (inactive).
